Test results as given in patent publication US20220226257A1, “USE OF CANNABINOIDS IN THE TREATMENT OF COM[…] EPILEPSY” (GW Research Limited, priority 2019, published 2022).

Key:
[1] = system: children and young adults with treatment resistant epilepsy associated with Dravet syndrome and Lennox-Gastaut syndrome; test: Principal component analysis of QOLCE survey data pooled from three randomised controlled clinical trials; format: in vivo, human
From the text: As described in Example 1 above PCA is a useful tool to scrutinise data which have several variables. A similar analysis was undertaken on the data produced using data pooled from three randomised controlled clinical trials on children and young adults with treatment resistant epilepsy associated with Dravet syndrome (one trial) and Lennox-Gastaut syndrome (LGS) (2 trials).
In the two placebo-controlled studies of CBD as a treatment for seizures associated with LGS, cannabidiol (CBD) was used as add-on treatment in patients who were defined as treatment-resistant. Patients had previously tried and stopped using a median of 6 AEDs and were being maintained on a median of 3 AEDs.
The first study was a 1:1 randomised, double-blind, 14-week comparison of cannabidiol oral solution (CBD-OS) versus placebo. The treatment period consisted of a two-week titration period followed by a 12-week maintenance period. The treatment period was followed by a 10-day taper period and a four-week follow-up period. […]
(§1) The Quality of Life in Childhood Epilepsy (QOLCE) survey was used to measure multiple QOL domains. […] The QOLCE questionnaire assessed 91 items divided into five sub-domains: physical function; cognitive function; emotional well-being; social function and behaviour. General health was also recorded.

[2] = system: epileptic male Wistar rats (RISE-SRS); details: shown previously; cited from earlier work
[3] = system: paediatric patients with epilepsy; details: care-giver-reported, 12 weeks open label; cited from earlier work
[4] = system: patients suffering from epilepsy syndromes (childhood onset treatment-resistant epilepsy); test: Case study analysis of quality of life measures, open label study (expanded access programme); format: in vivo, human
Method: The present example provides further data on additional epilepsy syndromes which were studied as part of the expanded access programme described in Example 1.
(§2) Children and young adults with severe, childhood onset treatment-resistant epilepsy (TRE) were tested with a highly purified extract of cannabidiol (CBD) obtained from a cannabis plant. The participants in the study were part of an expanded access compassionate use program for CBD.
(§3) All patients entered a baseline period of 4 weeks when parents/caregivers kept prospective seizure diaries, noting all countable motor seizure types.
(§4) The patients then received a highly purified CBD extract (greater than 98% CBD w/w) in sesame oil, of known and constant composition, at a dose of 5 mg/kg/day in addition to their baseline anti-epileptic drug (AED) regimen.
(§5) Laboratory testing for hematologic, liver, kidney function, and concomitant AED levels was performed at baseline, and at regular intervals throughout the 12 weeks of the study.
Table 7 below details the results obtained at the end of the study period (after between 12 and 108 weeks) from patients suffering from epilepsy syndromes in an open label study.

[5] = system: patients with Lennox-Gastaut syndrome; test: Biostatistical analysis of QOLCE subscale scores versus placebo, randomised controlled trial; format: in vivo, human; parameters: key to Biostatistical analysis of QOL subscale score versus placebo: ↔: no change (indicated by); ↑: a difference of greater than 10 points between medians (indicated by t); this change was statistically significant (indicated by *); details: 20 mg/kg/day
From the text: The following example uses biostatistical analysis to look for trends in QOL data collected in a randomised controlled trial of cannabidiol in patients with Lennox-Gastaut syndrome.
This study was a 1:1 randomised, double-blind, 14-week comparison of cannabidiol oral solution (CBD-OS) versus placebo. The treatment period consisted of a two-week titration period followed by a 12-week maintenance period. The treatment period was followed by a 10-day taper period and a four-week follow-up period. The study aimed to determine the efficacy, safety and tolerability of 20 mg/kg/day cannabidiol compared with placebo.
The Quality of Life in Childhood Epilepsy (QOLCE) survey was used to measure multiple QOL domains. Caregivers completed the survey at baseline and after the 12 weeks of treatment. The QOLCE questionnaire assessed 91 items divided into five sub-domains: physical function; cognitive function; emotional well-being; social function and behaviour. General health was also recorded.
Table 6 below details the areas where there no change (indicated by or a difference of greater than 10 points between medians (indicated by t), and whether this change was statistically significant (indicated by *).

[6] = system: children and young adults with severe, childhood onset treatment-resistant epilepsy (TRE); test: Principal component analysis of QOLCE survey data, open label (expanded access) study of CBD; format: in vivo, human
Method: PCA is a useful tool to visualise relatedness between populations of data and was used in the present example to determine the symptom domains that were improved during an open label study of cannabidiol (CBD) in patients with treatment resistant epilepsy.
as §2, §3, §4, §5
as §1, with “recorded. […]” for “recorded.”

C=C(C)[C@@H]1CCC(C)=C[C@H]1c1c(O)cc(CCCCC)cc1O [CBD, Cannabidiol]
areas of QOL improved despite no improvement in seizure burden [1]: memory; language; control/helplessness; stigma item and cognition | areas associated with quality of life with improvements ([1]; 10 or 20 mg/kg/day): quality of life item; general health; social interactions; social activities; attention/concentration; overall quality of life; memory; language; control/helplessness; stigma item and cognition | cognitive performances of rats exhibiting spontaneous recurrent seizures [2]: restore the deteriorated cognitive performances | seizure ratio of rats exhibiting spontaneous recurrent seizures [2]: improved the seizure ratio | QOLCE areas with improvements [3]: energy/fatigue; memory; other cognitive functions; control/helplessness; social interactions; behaviour and global quality of life | patients with a positive response (slightly improved; much improved or very much improved) ([4]; of the 39 patients for which data were recorded): 34 | QOL measure: Very much improved ([4]; patient 245-01, SNAP25, end of study period): ✓ | QOL measure: Very much improved ([4]; patient 245-03, FIRES, end of study period): ✓ | QOL measure: Much improved ([4]; patient 245-06, DUP15Q, end of study period): ✓ | QOL measure: Very much improved ([4]; patient 245-08, CDKL5, end of study period): ✓ | QOL measure: Very much improved ([4]; patient 245-11, CDKL5, end of study period): ✓ | QOL measure: Very much improved ([4]; patient 245-12, Aicardi, end of study period): ✓ | QOL measure: Much improved ([4]; patient 245-28, Aicardi, end of study period): ✓ | QOL measure: Much improved ([4]; patient 245-32, DUP15Q, end of study period): ✓ | QOL measure: Very much improved ([4]; patient 245-37, CDKL5, end of study period): ✓ | QOL measure: Slightly improved ([4]; patient 245-38, CDKL5, end of study period): ✓ | QOL measure: Much improved ([4]; patient 245-40, DUP15Q, end of study period): ✓ | QOL measure: Much improved ([4]; patient 245-42, DUP15Q, end of study period): ✓ | QOL measure: Slightly improved ([4]; patient 245-43, DUP15Q, end of study period): ✓ | QOL measure: Slightly improved ([4]; patient 245-45, CDKL5, end of study period): ✓ | QOL measure: Very much improved ([4]; patient 245-47, CDKL5, end of study period): ✓ | QOL measure: Very much improved ([4]; patient 245-48, CDKL5, end of study period): ✓ | QOL measure: Slightly worse ([4]; patient 245-56, CDKL5, end of study period): ✓ | QOL measure: Much improved ([4]; patient 245-57, Aicardi, end of study period): ✓ | QOL measure: Much improved ([4]; patient FIL-01, Aicardi, end of study period): ✓ | QOL measure: Very much improved ([4]; patient FIL-09, Doose, end of study period): ✓ | QOL measure: Much improved ([4]; patient FIL-14, Doose, end of study period): ✓ | QOL measure: Slightly worse ([4]; patient FIL-25, Aicardi, end of study period): ✓ | QOL measure: No change ([4]; patient FLAM-25, Tuberous sclerosis, end of study period): ✓ | QOL measure: Very much improved ([4]; patient LCH-04, Aicardi, end of study period): ✓ | QOL measure: No change ([4]; patient LCH-08, Aicardi, end of study period): ✓ | QOL measure: Very much improved ([4]; patient LCH-12, Aicardi, end of study period): ✓ | QOL measure: Very much improved ([4]; patient LCH-18, FIRES, end of study period): ✓ | QOL measure: Very much improved ([4]; patient LCH-21, CDKL5, end of study period): ✓ | QOL measure: Very much improved ([4]; patient LCH-22, Tuberous sclerosis, end of study period): ✓ | QOL measure: Much worse ([4]; patient MAR-E1, FIRES, end of study period): ✓ | QOL measure: Very much improved ([4]; patient MAR-E2, FIRES, end of study period): ✓ | QOL measure: Very much improved ([4]; patient PAT-10, Aicardi, end of study period): ✓ | QOL measure: Very much improved ([4]; patient PAT-11, Aicardi, end of study period): ✓ | QOL measure: Very much improved ([4]; patient PAT-21, Aicardi, end of study period): ✓ | QOL measure: Much improved ([4]; patient PAT-26, Aicardi, end of study period): ✓ | QOL measure: Much improved ([4]; patient WIL-02, Sturge Weber, end of study period): ✓ | QOL measure: Much improved ([4]; patient WIL-05, Doose, end of study period): ✓ | QOL measure: Much improved ([4]; patient WIL-09, CDKL5, end of study period): ✓ | QOL measure: Much improved ([4]; patient WIL-10, Angelman, end of study period): ✓ | quality of life in patients with additional epilepsy syndromes ([4]; tuberous sclerosis, CDKL5, Sturge Weber, Doose, Angelman, SNAP25, FIRES, DUP15Q, Aicardi): observable improvement in quality of life | QOL domains with a significant increase above baseline ([5]; Lennox-Gastaut syndrome): memory and language | domains with a decrease in quality of life ([5]; Lennox-Gastaut syndrome): no domains where there was a decrease in quality of life | Biostatistical analysis of QOL subscale score versus placebo ([5]; QOL subscale: Anxiety): ↔ | Biostatistical analysis of QOL subscale score versus placebo ([5]; QOL subscale: Attention / concentration): ↔ | Biostatistical analysis of QOL subscale score versus placebo ([5]; QOL subscale: Behaviour): ↔ | Biostatistical analysis of QOL subscale score versus placebo ([5]; QOL subscale: Control / helplessness): ↔ | Biostatistical analysis of QOL subscale score versus placebo ([5]; QOL subscale: Depression): ↔ | Biostatistical analysis of QOL subscale score versus placebo ([5]; QOL subscale: Energy/fatigue): ↔ | Biostatistical analysis of QOL subscale score versus placebo ([5]; QOL subscale: General health): ↔ | Biostatistical analysis of QOL subscale score versus placebo ([5]; QOL subscale: Language): ↑* | Biostatistical analysis of QOL subscale score versus placebo ([5]; QOL subscale: Memory): ↑* | Biostatistical analysis of QOL subscale score versus placebo ([5]; QOL subscale: Other cognitive): ↑* | Biostatistical analysis of QOL subscale score versus placebo ([5]; QOL subscale: Physical restriction): ↔ | Biostatistical analysis of QOL subscale score versus placebo ([5]; QOL subscale: Self-esteem): ↔ | Biostatistical analysis of QOL subscale score versus placebo ([5]; QOL subscale: Social activities): ↔ | Biostatistical analysis of QOL subscale score versus placebo ([5]; QOL subscale: Social interaction): ↑ (a difference of greater than 10 points between medians (indicated by t)) | Biostatistical analysis of QOL subscale score versus placebo ([5]; QOL subscale: Stigma item): ↔ | areas where improvement was observed without an improvement of seizures ([6]; bottom right area of the biplot): control/helplessness and stigma item | areas associated with quality of life with improvements (right of the zero F1 axis) ([6]; open label study, 12 weeks, 5 to 50 mg/kg/day): attention and concentration; QOL item; energy/fatigue; control/helplessness and stigma item
